pIC50: −log10 of the molar value.
The compounds below were run against T1, human renin (Homo sapiens, UniProt P00797) (assay: Plasma renin assay (inhibition of human renin, angiotensin I by RIA)). Details: human plasma pool, pH 6.0, 2 h incubation at 37°.
T1 construct: A human plasma pool is used as the source of both the substrate (angiotensinogen) and the enzyme (renin); from tissue; host or cells: human plasma pool
T1 sequence (P00797 67-406): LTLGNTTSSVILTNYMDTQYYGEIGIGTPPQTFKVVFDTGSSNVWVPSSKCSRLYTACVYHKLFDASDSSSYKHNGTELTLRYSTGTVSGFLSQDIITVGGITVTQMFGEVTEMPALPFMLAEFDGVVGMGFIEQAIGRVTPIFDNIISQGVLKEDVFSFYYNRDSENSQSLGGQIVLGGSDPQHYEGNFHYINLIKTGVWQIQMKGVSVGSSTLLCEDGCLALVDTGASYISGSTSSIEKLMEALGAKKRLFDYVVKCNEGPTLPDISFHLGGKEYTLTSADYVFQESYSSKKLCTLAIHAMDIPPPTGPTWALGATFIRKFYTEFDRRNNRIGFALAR
Type: biochemical
Protocol: The assay is performed as follows: The test compound (i.e. the inhibitor) is dissolved in dimethylsulfoxide (1 mM stock solution) and diluted with an aqueous buffer solution of 270 mM 2-(N-morpholino)ethanesulfonic acid and 1% human serum albumin (pH 5.85, also containing dimercaprol and 8-hydroxyquinoline sulfate in accordance with the instructions of the RIA kit noted below) to give an assay mixture in which the final dimethylsulfoxide content is 1% (v/v).
A human plasma pool is used as the source of both the substrate (angiotensinogen) and the enzyme (renin). The reaction is initiated by the addition of 50 μL of human plasma pool to 50 μL of various concentrations of inhibitor in the 1% dimethylsulfoxide assay buffer. The plasma renin activity is measured by the amount of angiotensin I generated at pH 6.0 following a 2 h incubation at 37°.
Quantitation of angiotensin I is performed by radioimmunoassay (RIA kit from New England Nuclear-Dupont, Mississauga, ON, Canada). The enzymatic activity of renin is expressed in ng of angiotensin I generated (/mL/2 h). The extent of inhibition of the reaction is determined from the amount of angiotensin I generated in reference to a control prepared without inhibitor. Nonlinear regression analysis is used to calculate the IC50 values, i.e. the molar concentration of the test compound required to cause a 50% inhibition of the enzyme activity.
With CC(C)C[C@H](O)[C@H](O)[C@H](CC1CCCCC1)NC(=O)[C@@H](CC(=O)N(CC(=O)N(C)C)C[C@@H](C)c1ccccc1)CC1CC1 [Compound 20, N^4-[2-(dimethylamino)-2-oxoethyl]-N^4-(2(S)-phenylpropyl]-N^1-(1(S)-(cyclohexylmethyl)-2(R),3(S)-dihydroxy-5-methylhexyl]-2(R)-(cyclopropylmethyl)butanediamide] the pIC50 was 7.43.
CC(C)C[C@H](O)[C@H](O)[C@H](CC1CCCCC1)NC(=O)[C@@H](CC(=O)N(CC(=O)N(C)C)CC(C)(C)c1ccccc1)CC1CC1 [Compound 21, N^4-[2-(dimethylamino)-2-oxoethyl]-N^4-(2-methyl-2-phenylpropyl)-N^1-[1(S)-(cyclohexylmethyl)-2(R),3(S)-dihydroxy-5-methylhexyl]-2(R)-(cyclopropylmethyl)butanediamide] gave a pIC50 of 6.82.
Compound CC(C)C[C@H](O)[C@H](O)[C@H](CC1CCCCC1)NC(=O)[C@@H](CC(=O)N(CC(=O)N(C)CCc1ccccn1)[C@@H](C)c1ccccc1)CC1CC1 [Compound 22, N^4-[1(S)-phenylethyl]-N^4 -{2-{methyl[2-(2-pyridinyl)ethyl]-amino}-2-oxoethyl}-N^1-(1(S)-(cyclohexylmethyl)-2(R),3(S)-dihydroxy-5-methylhexyl]-2(R)-(cyclopropylmethyl)-butanediamide] has a pIC50 of 7.70.
In the case of CC(C)C[C@H](O)[C@H](O)[C@H](CC1CCCCC1)NC(=O)[C@@H](CC(=O)N(CC(=O)N(C)CCN(C)C)[C@@H](C)c1ccccc1)CC1CC1 [Compound 23, N^4 -{2-{[2-(dimethylamino)ethyl]methylamino}-2-oxoethyl}-N^4-[1(S)-phenylethyl]-N^1-[1(S)-(cyclohexylmethyl)-2(R),3(S)-dihydroxy-5-methylhexyl]-2(R)-(cyclopropylmethyl)-butanediamide], the pIC50 was 7.59.
In the case of CCN(CC)CCN(C)C(=O)CN(C(=O)C[C@@H](CC1CC1)C(=O)N[C@@H](CC1CCCCC1)[C@@H](O)[C@@H](O)CC(C)C)[C@@H](C)c1ccccc1 [Compound 24, N^4 -{2-{[2-(diethylamino)ethyl]methylamino}-2-oxoethyl}-N^4-[1(S)-phenylethyl]-N^1-[1(S)-(cyclohexylmethyl)-2(R),3(S)-dihydroxy-5-methylhexyl]-2(R)-(cyclopropylmethyl)-butanediamide], the pIC50 was 7.21.
Work on CCC[C@H](CC(=O)N(CC(=O)N(C)C)[C@@H](C)c1ccccc1)C(=O)N[C@@H](CC1CCCCC1)[C@@H](O)[C@@H](O)CC(C)C [Compound 25, N^4-[2-(dimethylamino)-2-oxoethyl]-N^4-[1(S)-phenylethyl]-N^1-[1(S)-(cyclohexylmethyl)-2(R),3(S)-dihydroxy-5-methylhexyl]-2(R)-propylbutanediamide] yielded a pIC50 of 7.47.
With CCC[C@H](CC(=O)N(CC(=O)N(C)CCc1ccccn1)Cc1ccccc1)C(=O)N[C@@H](CC1CCCCC1)[C@@H](O)[C@@H](O)CC(C)C [Compound 26, N^4-benzyl-N^4 -{2-{methyl[2-(2-pyridinyl)ethyl]amino}-2-oxoethyl}-N^1-[1(S)-(cyclohexylmethyl)-2(R),3(S)-dihydroxy-5-methylhexyl]-2(R)-propylbutanediamide] the pIC50 was 7.54.
With CC(C)C[C@H](O)[C@H](O)[C@H](CC1CCCCC1)NC(=O)[C@@H](CC(=O)N(CC(=O)N(C)C)[C@@H](C)c1ccccc1)Cc1c[nH]cn1 [Compound 27, N^4-[2-(dimethylamino)-2-oxoethyl]-N^4-(1(S)-phenylethyl]-N^1-[1(S)-(cyclohexylmethyl)-2(R),3(S)-dihydroxy-5-methylhexyl]-2(R)-(1H-imidazol-4-ylmethyl)butanediamide] the pIC50 was 8.22.
CC(C)C[C@H](O)[C@H](O)[C@H](CC1CCCCC1)NC(=O)[C@@H](CC(=O)N(CC(=O)N(C)C)[C@@H](C)c1ccccc1)Cc1csc(N)n1 [Compound 28, N^4-[2-(dimethylamino)-2-oxoethyl]-N^4-[1(S)-phenylethyl]-N^1-[1(S)-(cyclohexylmethyl)-2(R),3(S)-dihydroxy-5-methylhexyl]-2(R)-[(2-amino-4-thiazolyl)methyl]butanediamide] was tested, and the pIC50 was 8.89.
With CC(C)C[C@H](O)[C@H](O)[C@H](CC1CCCCC1)NC(=O)[C@@H](CC(=O)N(CC(=O)N(C)CCc1ccncc1)Cc1ccccc1)CC1CC1 [Compound 29, N^4-benzyl-N^4 -{2-{methyl[2-(4-pyridinyl)ethyl]amino}-2-oxoethyl}-N^1-[1(S)-(cyclohexylmethyl)-2(R)3(S)-dihydroxy-5-methylhexyl]-2(R)-(cyclopropylmethyl)butanediamide] the pIC50 was 7.17.
In the case of CC(C)C[C@H](O)[C@H](O)[C@H](CC1CCCCC1)NC(=O)[C@@H](CC(=O)N(CC(=O)N(C)C)[C@@H](C)c1ccccc1)Cc1cscn1 [Compound 30, N^4-[2-(dimethylamino)-2-oxoethyl]-N^4-[1(S)-phenylethyl]-N^1-[1(S)-(cyclohexylmethyl)-2(R),3(S)-dihydroxy-5-methylhexyl]-2(R)-(4-thiazolylmethyl)butanediamide], the pIC50 was 8.60.
CC(C)C[C@H](O)[C@H](O)[C@H](CC1CCCCC1)NC(=O)[C@@H](CC(=O)N(CC(=O)N(C)C)CC1CCCCC1)CC1CC1 [Compound 31, N^4-(cyclohexylmethyl)-N^4-(2-(dimethylamino)-2-oxoethyl]-N^1-[1(S)-(cyclohexylmethyl)-2(R),3(S)-dihydroxy-5-methylhexyl]-2(R)-(cyclopropylmethyl)butanediamide] showed a pIC50 of 7.89.
Work on CC(C)C[C@H](O)[C@H](O)[C@H](CC1CCCCC1)NC(=O)[C@@H](CC(=O)N(CC(=O)N(C)C)[C@@H](C)c1ccccc1)Cc1cccs1 [Compound 32, N^4-(2-(dimethylamino)-2-oxoethyl]-N^4-(1(S)-phenylethyl]-N^1-[1(S)-(cyclohexylmethyl)-2(R),3(S)-dihydroxy-5-methylhexyl]-2(S)-(2-thienylmethyl)butanediamide] yielded a pIC50 of 7.89.
Compound CC(C)C[C@H](O)[C@H](O)[C@H](CC1CCCCC1)NC(=O)[C@@H](CC(=O)N(CC(=O)N1CCOCC1)[C@@H](C)c1ccccc1)CC1CC1 [Compound 33, N^4-[1(S)-phenylethyl-N^4-(2-morpholino-2-oxoethyl)-N^1-1(S)-(cyclohexylmethyl)-2(R),3(S)-dihydroxy-5-methylhexyl]-2(R)-(cyclopropylmethyl)butanediamide] has a pIC50 of 6.92.
In the case of CC(C)C[C@H](O)[C@H](O)[C@H](CC1CCCCC1)NC(=O)[C@@H](CC(=O)N(CC(=O)N(C)CCc1ccccn1)Cc1ccccc1)Cc1cccs1 [Compound 34, N^4-benzyl-N^4 -{2-{methyl[2-(2-pyridinyl)ethyl]amino}-2-oxoethyl}-N^1-[1(S)-(cyclohexylmethyl)-2(R),3(S)-dihydroxy-5-methylhexyl]-2(S)-(2-thienylmethyl)butanediamide], the pIC50 was 7.89.
With CC(C)C[C@H](O)[C@H](O)[C@H](CC1CCCCC1)NC(=O)[C@@H](CC(=O)N(CC(=O)N1CCOCC1)CC1CCCCC1)CC1CC1 [Compound 35, N^4-(cyclohexylmethyl)-N^4-(2-morpholino-2-oxoethyl)-N^1-[1(S)-(cyclohexylmethyl)-2(R),3(S)-dihydroxy-5-methylhexyl]-2(R)-(cyclopropylmethyl)butanediamide] the pIC50 was 8.10.
CC(C)C[C@H](O)[C@H](O)[C@H](CC1CCCCC1)NC(=O)[C@@H](CC(=O)N(CC(=O)N(C)C)CC1CCCCC1)Cc1cscn1 [Compound 36, N^4-(cyclohexylmethyl)-N^4-[2-(dimethylamino)-2-oxoethyl]-N^1-[1(S)-(cyclohexylmethyl)-2(R),3(S)-dihydroxy-5-methylhexyl]-2(R)-(4-thiazolylmethyl)butanediamide] was tested, and the pIC50 was 8.82.
CC(C)C[C@H](O)[C@H](O)[C@H](CC1CCCCC1)NC(=O)[C@@H](CC(=O)N(CC(=O)N(C)C)CC1CCCCC1)Cc1nccs1 [Compound 37, N^4-(cyclohexylmethyl)-N^4-[2-(dimethylamino)-2-oxoethyl]-N^1-[1(S)-(cyclohexylmethyl)-2(R),3(S)-dihydroxy-5-methylhexyl]-2(S)-(2-Thiazolylmethyl)butanediamide] gave a pIC50 of 8.80.
With CC(C)C[C@H](O)[C@H](O)[C@H](CC1CCCCC1)NC(=O)[C@@H](CC(=O)N(CC(=O)N(C)C)[C@@H](C)C1CCCCC1)CC1CC1 [Compound 38, N^4-(1(S)-cyclohexylethyl)-N^4-[2-(dimethylamino)-2-oxoethyl]-N^1-[1(S)-(cyclohexylmethyl)-2(R),3(S)-dihydroxy-5-methylhexyl]-2(R)-(cyclopropylmethyl)butanediamide] the pIC50 was 8.08.
Work on CC(C)C[C@H](O)[C@H](O)[C@H](CC1CCCCC1)NC(=O)[C@@H](CC(=O)N(CC(=O)N1CCOCC1)CC1CCCCC1)Cc1nccs1 [Compound 39, N^4-(cyclohexylmethyl)-N^4-(2-morpholino-2-oxoethyl)-N^1-[1(S)-(cyclohexylmethyl)-2(R),3(S)-dihydroxy-5-methylhexyl]-2(S)-(2-thiazolylmethyl)butanediamide] yielded a pIC50 of 8.80.
